# US20200209247A1, “METHODS FOR IDENTIFYING MYELOMA TUMOR-INITIATING CELLS AND TARGETED THERAPY” (UNIVERSITY OF IOWA RESEARCH FOUNDATION, priority 2017, published 2020)
# Tested on: RPMI-8226, RPMI-8226-R5 (a drug resistant cell line) cells
# Format: cell-based, human
# Settings: treated in vitro for 72 h; RT-PCR
# Method: Drug resistance is a critical characteristic of TICs^43. To examine whether CD24^+ cells show higher resistance to chemotherapeutic drugs, the soft agar clonogenic formation assay was employed to examine the response to multiple drugs. […] The ARP1 cells from the 1st passage were collected and re-plated in methylcellulose dishes. CD24^+ and CD24^− ARP1 MM cells in the 2nd passage were treated with bortezomib (2 and 10 nM) or carfilzomib (2.5 and 12.5 nM) or melphalan (2.5 and 12.5 μM) for 2 weeks. CD24^+ ARP1 (FIGS. 5A & 5B) or OCI-MY5 (FIGS. 5C & 5D) MM cells were more pronounced resistant (>2.5-fold) than CD24^− ARP1 or OCI-MY5 MM cells. To directly confirm whether CD24^+ population are enriched upon chemotherapy, we treated RPMI-8226, RPMI-8226-R5 (a drug resistant cell line) cells with bortezmib or melphalan in vitro for 72 h (data not shown).
row,Compound,expression of CD24 in survival cells compared to untreated MM cells
1,CC(C)C[C@H](NC(=O)[C@H](Cc1ccccc1)NC(=O)c1cnccn1)B(O)O [bortezomib],upregulated
2,N[C@@H](Cc1ccc(N(CCCl)CCCl)cc1)C(=O)O [melphalan],upregulated
